These results are taken from patent US20100160391A1, “Substituted Aminopyridines as Fluorescent Reporters for Amide Hydrolases” (priority 2006, published 2010).

Data set [1] can be described thus: Comparison of aqueous solubility of substrates (absorbance at 800 nm). It is filed as physicochemical. The following applies: 0.1 M phosphate buffer (pH 8.0), 1% ethanol, 37° C. The procedure: Comparison of aqueous solubility of substrates. The aqueous solubility of the aminopyridine derivatives (e.g., 13, 14) and the 7-aminocoumarin derivative (e.g., 15) was determined in clear 96-well styrene flat-bottom microtiter plates with a Spectra Max M2 spectrophotometer. Different concentrations of the substrates (13, 14 and 15; final concentration: 0.39, 0.78, 1.56, 3.13, 6.25, 12.5, 25, 50, 100, or 200 μM) in 200 μl 0.1 M sodium phosphate buffer (1% ethanol; pH 8.0) were used and the absorbance was recorded at a wavelength of 800 nm at 37° C. The measurements were performed in three replicates for each concentration.

Data set [2] addresses T1, human FAAH, microsomes from FAAH cells (Homo sapiens, UniProt O00519).
T1 construct: made in house; host or cells: Trichoplusia ni High Five cells infected with recombinant baculovirus Ac-hFAAH; microsomal fraction
T1 sequence (O00519 1-579): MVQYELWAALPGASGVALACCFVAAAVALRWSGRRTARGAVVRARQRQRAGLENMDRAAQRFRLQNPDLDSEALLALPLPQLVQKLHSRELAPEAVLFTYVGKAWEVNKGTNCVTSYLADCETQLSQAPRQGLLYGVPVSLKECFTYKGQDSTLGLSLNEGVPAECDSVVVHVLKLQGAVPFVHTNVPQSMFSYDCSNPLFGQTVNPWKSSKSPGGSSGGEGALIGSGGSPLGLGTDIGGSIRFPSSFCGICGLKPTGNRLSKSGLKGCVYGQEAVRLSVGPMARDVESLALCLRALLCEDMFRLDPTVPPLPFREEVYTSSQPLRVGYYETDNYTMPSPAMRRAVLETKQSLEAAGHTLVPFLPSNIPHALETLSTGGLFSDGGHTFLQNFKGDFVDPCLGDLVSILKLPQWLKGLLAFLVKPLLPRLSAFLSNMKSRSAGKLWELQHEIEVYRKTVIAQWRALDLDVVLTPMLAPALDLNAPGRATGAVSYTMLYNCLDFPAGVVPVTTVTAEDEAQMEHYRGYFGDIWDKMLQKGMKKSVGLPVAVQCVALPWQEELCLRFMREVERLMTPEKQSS
Nature of the data set: Specific activity, microsomes from FAAH cells. It is filed as biochemical. Here is the method: Preparation of recombinant human FAAH. Transgenic expression of the human FAAH in a baculovirus system was performed by following the method described in Nishi et al., Arch. Biochem. Biophys., 445:115-123 (2006). The cDNA encoding human FAAH (GenBank Accession No. NM_001441) was amplified by PCR using a human liver cDNA library (Invitrogen; Carlsbad, Calif.) as a template. The primer pair was 5′-[…]-3′ and 5′-[…]-3′. BglII and EcoRI endonuclease sites (underlined) were incorporated just upstream of the start codon and downstream of the stop codon of the coding sequence of FAAH, respectively. The PCR products were cloned into a pCR2.1 vector (Invitrogen) and the nucleotide sequence was verified by DNA sequencing. The cDNA fragments were then excised and directionally ligated to the BglII and EcoRI sites of the baculovirus transfer vector pAcUW21 (Lopez-Ferber et al., Baculovirus transfer vectors, in “Baculovirus Expression Protocols,” Richardson (Ed.), pp 25-63, Humana Press, Totowa, N.J., 1995). Recombinant baculoviruses harboring the human FAAH gene, Ac-hFAAH, were generated by co-transfection of Spodoptera frugiperda-derived Sf21 cells with the recombinant transfer vector plasmid and Bsu36I-cleaved BacPAK6 viral DNA (Clontech Laboratories; Mountain View, Calif.) as described in O'Reilly et al., Baculovirus Expression Vectors: A Laboratory Manual, Oxford University Press, New York, 1992. Trichoplusia ni-derived High Five cells (1×10^6 cells/ml) were inoculated with a high titer of Ac-hFAAH. At 72 hours post-infection, the infected cells were harvested by centrifugation at 2,000×g for 20 min at 4° C. and suspended in 50 mM Tris-HCl (pH 8.0) containing 150 mM NaCl, 1 mM EDTA, 1 μM pepstatin, 100 μM leupeptin, and 0.1 mg/ml aprotinin. The cell suspension was then homogenized using a Polytron homogenizer and centrifuged at 10,000×g for 20 min at 4° C. The microsomal fraction was collected by ultracentrifugation of the supernatant at 100,000×g for 60 min at 4° C. The pellet was resuspended in 20 mM Tris-HCl (pH 8.0) containing 10% (w/v) glycerol and 1% (w/v) Triton-X 100 and stored at −80° C. until use.
Comparison of the lowest detection limits of protein concentration of FAAH toward colorimetric and fluorescent substrates. In general, all assays were performed in 96-well styrene flat-bottom microtiter plates with a Spectra Max M2 spectrophotometer at 37° C. for […]. The total volume of each well was 201 μl consisting of 0.1 M sodium phosphate buffer (pH 8.0) (190 μl) containing 1% glycerol and 0.1% Triton-X 100, stock or diluted protein solution (10 μl), and the substrate solution (1 μl) in ethanol (final concentration 200 μM for 10, 11, 13 or 14) or in DMSO (final concentration 25 μM for 12, 15, or 16; 50 μM for 17). The lowest detection limits of microsomal fatty acid amide hydrolase (FAAH) by substrates were determined by the fact that the signal at 10 min after kinetic measurements are equal to or over three times the noise or basal line at 0 min. Colorimetric substrate (16) assays were performed in clear 96-well microtititer plates using an absorbance wavelength at 382 nm. The fluorescent substrates containing 5-amino-2-methoxypyridine (e.g., 10, 13) were measured at an excitation wavelength (302 nm), emission wavelength (396 nm), and auto cutoff wavelength (325 nm). Similarly, the fluorescent substrates containing 5-amino-2-methoxy-6-methylpyridine (e.g., 11, 14, and 17) were measured at an excitation wavelength (304 nm), emission wavelength (392 nm), and an auto cutoff wavelength of 325 nm. In addition, an excitation wavelength (366 nm), emission wavelength (496 nm), and auto cutoff wavelength (495 nm) were used for the substrates (e.g., 12 and 15) containing 7-amino-4-trifluoromethyl coumarin.
Specific activity determination. The assays for specific activities were performed as described above for the sensitivity assay. […]

For `CCCCCCCC(=O)Nc1ccc(OC)nc1` [Compound 13, N-(6-methoxypyridin-3-yl) octanamide], the “aqueous solubility compared with coumarin substrate (15)” value in data set [1] was “much higher solubility”. The “enhancement of activity, microsomes from FAAH-expressing cells compared with High Five cells” value in data set [2] is on record as 254 times. The “preference of FAAH for substrate (13) over (14), specific activity” value in data set [2] (Table 4) amounted to 10 times. Also, in data set [2] (pH 8.0, 37° C., NM = not measurable at the same protein concentration as other substrates), the “Specific activity, Microsomes from FAAH cells” value is on record as 202.6 ± 3.3 nmol/min/mg protein.
